# Entries after “also recorded” stand apart in the source; their conditions may differ. Counter-ions that a name gives are not always drawn. Like-named read-outs stand apart in the source and are kept apart here.
# Key:
# soybean 15-lipoxygenase = test system: soybean 15-lipoxygenase; set-up: method as in PMID 26048035; details: tested range of concentrations; cited from earlier work
# [1] = test system: LPS-induced RAW264.7 murine macrophage cells; set-up: method as in PMID 26048035; details: 25 µg/mL; cited from earlier work
# [2] = test system: RAW264.7 murine macrophage cells; set-up: method as in PMID 26048035; details: 25 µg/mL; cited from earlier work
# Human recombinant 5-LOX = target: T1, Human recombinant 5-LOX (Homo sapiens, UniProt P09917); test: 5-Lipoxygenase inhibitory assay; format: biochemical
# T1 construct: purchased Cayman Chemical
# T1 sequence (P09917 1-674): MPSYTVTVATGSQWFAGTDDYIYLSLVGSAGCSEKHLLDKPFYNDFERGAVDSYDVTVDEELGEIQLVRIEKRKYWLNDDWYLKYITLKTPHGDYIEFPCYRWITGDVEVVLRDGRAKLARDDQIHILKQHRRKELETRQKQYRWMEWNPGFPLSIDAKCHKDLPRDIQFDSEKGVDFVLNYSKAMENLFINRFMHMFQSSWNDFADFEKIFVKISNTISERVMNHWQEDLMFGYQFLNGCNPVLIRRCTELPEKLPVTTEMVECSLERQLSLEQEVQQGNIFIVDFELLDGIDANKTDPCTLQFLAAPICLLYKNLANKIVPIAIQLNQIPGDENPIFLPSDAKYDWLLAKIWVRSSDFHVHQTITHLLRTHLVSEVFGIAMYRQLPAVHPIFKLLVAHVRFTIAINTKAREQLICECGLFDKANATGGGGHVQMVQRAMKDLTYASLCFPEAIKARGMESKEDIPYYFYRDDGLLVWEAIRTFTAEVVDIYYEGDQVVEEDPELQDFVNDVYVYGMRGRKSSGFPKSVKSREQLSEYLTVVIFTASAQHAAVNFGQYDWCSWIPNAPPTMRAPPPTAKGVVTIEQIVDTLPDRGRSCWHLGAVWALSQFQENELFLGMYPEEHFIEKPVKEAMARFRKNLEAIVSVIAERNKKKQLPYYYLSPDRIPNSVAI
# Protocol: We performed this method according to a previous study with some modifications. Human recombinant 5-LOX (Cayman Chemical, E.C. 1.13.11.34, Ann Arbor, MI, USA) was used in this study. Various concentrations of 20 µL of the tested samples (dissolved in polysorbate-20 and DMSO) were plated in a 96-well UV transparent plate followed by the addition of 100 µL of 0.1 M potassium phosphate buffer, pH 6.3. The mixture was maintained at 25 °C before the addition of enzyme. We added 20 µL of 100 U 5-LOX enzyme (in 0.1 M potassium phosphate buffer, pH 6.3) to the sample solution followed by a 4 min incubation at 25 °C. Afterward, the reaction was initiated by adding 10 µL of 1 mM arachidonic acid as a substrate. The incubation was performed at 25 °C for 30 min, and the absorbance was measured at 234 nm using a microplate reader. The nonenzymatic control was used as a background. […] The experiments were performed in two rounds to generate five replicate wells in total. The percentage of inhibition was calculated by Equation (8), and the IC50 values were determined. (8) % Inhibition=Absorbance control−Absorbance sample/Absorbance control×100
# Human recombinant COX-2 = target: T2, Human recombinant COX-2 (Homo sapiens, UniProt P35354); test: Cyclooxygenase-2 inhibitory assay; format: biochemical
# T2 construct: purchased Sigma Aldrich C0858; host or cells: insect cells
# T2 sequence (P35354 18-604): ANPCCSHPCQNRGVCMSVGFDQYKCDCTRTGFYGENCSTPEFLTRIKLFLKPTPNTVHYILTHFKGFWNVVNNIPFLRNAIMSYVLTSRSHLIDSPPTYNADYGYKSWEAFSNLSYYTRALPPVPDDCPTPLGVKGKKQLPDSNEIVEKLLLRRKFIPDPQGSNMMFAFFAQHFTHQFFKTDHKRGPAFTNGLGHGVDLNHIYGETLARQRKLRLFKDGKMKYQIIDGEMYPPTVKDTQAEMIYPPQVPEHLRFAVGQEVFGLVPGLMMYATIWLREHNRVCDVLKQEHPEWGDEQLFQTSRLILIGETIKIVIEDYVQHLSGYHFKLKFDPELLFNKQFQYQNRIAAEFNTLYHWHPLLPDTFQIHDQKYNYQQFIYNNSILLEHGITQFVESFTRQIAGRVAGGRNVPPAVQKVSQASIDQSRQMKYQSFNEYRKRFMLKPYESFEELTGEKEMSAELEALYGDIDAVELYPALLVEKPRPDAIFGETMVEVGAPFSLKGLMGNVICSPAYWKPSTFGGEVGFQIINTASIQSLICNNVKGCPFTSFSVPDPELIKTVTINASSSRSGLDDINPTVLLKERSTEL
# Protocol: This method was adapted and modified from Chew et al. (2018). Human recombinant COX-2 expressed in insect cells (Sigma Aldrich, C0858) was used in this experiment. Initially, a solution of 100 mM Tris HCl buffer, pH 8, was plated out in each well of a 96-well plate. Various concentrations of 40 µL samples (dissolved in polysorbate-20 and DMSO) were further added to the plate, followed by the addition of 40 µL of 40 U COX-2 enzyme (in ice-cool 100 mM Tris HCl buffer, pH 8). The mixture was incubated at 25 °C for 15 min under dark condition. Following the incubation, 10 µL of 20 mM N,N,N′,N′-tetramethyl-p-phenylenediamine (TMPD) and 4 µL of 10 µM of arachidonic acid were added to the mixture. Incubation of the mixture was further performed at a subdued light condition for 15 min. Prostaglandin G2 (PGG2) as an intermediate peroxide product was formed by the reaction and further oxidized the TMPD to a purple-colored TMPD complex. The absorbance was measured at 611 nm. The experiments were performed in duplicate wells. […] The percentage of inhibition was calculated by Equation (7), and the IC50 values were determined. (7) % Inhibition=Absorbance control−Absorbance sample/Absorbance control×100
# Staphylococcus aureus = test: Broth dilution assay (MIC); format: cell-based; details: pure compounds, inactive at >200 µg/mL
# Protocol: The MIC values were determined using a broth dilution assay. Tetracycline used as an antibiotic was dissolved in 50% ethanol while EOs, extracts, and pinostrobin dissolved in DMSO (0.2% v/v) were suspended in an LB medium to obtain the final concentrations of EOs/extract, pinostrobin, and tetracycline in the range of 0.1562–200 µg/mL. Then, 20 µL of the bacterial culture with an OD600 value of ~0.5 was taken into each tube, which was continuously inoculated. Afterward, the treated culture was incubated at 37 °C for 24 h in a shaking condition (180 rpm). The absorbance was further measured at 600 nm. An LB medium and 0.2% DMSO were used as positive controls, while the cell culture without treatment in an LB medium was used as a negative control. The experiments were performed in triplicate.
# 5-LOX = test system: 5-LOX; set-up: method as in PMID 17376394; details: cited from earlier work
# [3] = test system: keratinocyte (HaCaT) cells; set-up: method as in earlier work; details: cited from earlier work
# [4] = target: T3, Human recombinant 5-lipoxygenase (Homo sapiens, UniProt P09917); test: Steady-state inhibition kinetic study of 5-lipoxygenase; format: biochemical; details: for type of inhibition against 5-LOX: Michaelis-Menten and Lineweaver-Burk plots
# T3 construct: purchased Cayman Chemical
# T3 sequence (P09917 1-674): T1 sequence (P09917 1-674)
# Protocol: The same experimental conditions as described previously for determining enzyme inhibition were applied. The reaction was performed at 25 °C and measured kinetically for 30 min (BioTek Synergy H1 microplate reader, Winooski, VT, USA). […] Furthermore, the enzymes’ velocity was plotted versus the substrate concentration, which was fitted to the Henri–Michaelis–Menten equation. In addition, the data were transformed to fit a double reciprocal plot using the Lineweaver–Burk method. […] All measurements were performed in two rounds of triplicate wells.
# [5] = DPPH radical scavenging activity; details: pure compounds
# Protocol: Each extract/EOs sample (20 µL) at various concentrations ([…]–5 mg/mL) was placed to a 96-well plate, followed by the addition of 120 µM DPPH solution in methanol (180 µL). The plate was subsequently incubated for 30 min in the dark at 37 °C. After that, the absorbance was measured by a microplate reader at 517 nm. Quercetin and solvent were used as a positive control and a control, respectively. The radical scavenging percentage inhibition against DPPH was calculated using Equation (4). (4) % Inhibition=Absorbance control−Absorbance sample/Absorbance control×100
# [6] = Ferric reducing antioxidant power (FRAP); details: pure compound
# Protocol: Each extract/EOs sample (10 µL) was added to each well of a 96-well plate at various concentrations (1–5 mg/mL), followed by a freshly prepared FRAP reagent (190 µL). The mixture was then incubated at room temperature for 4 min. Vivid blue resulted from the […]. The absorbance was further measured at 595 nm. The FRAP value (Equation (6)) was determined by calculating the concentration of ferric ions in the samples relative to the calibration curve of FeSO4 (FRAP value in µM FeSO4/mg dry weight of extract). (6) FRAP value=C ×v (mL)/d × c (mg/mL) where C is the calibrated sample concentration, v is the volume sample, d is the dilution factor, and c is the concentration of the tested sample.
# [7] = topical application, mouse model, 1000 mg/kg; cited from earlier work
# [8] = Nitric oxide (NO) radical scavenging activity (Griess reaction); details: pure compounds
# Protocol: The technique was adapted and modified from the study of Thadhani et al.. The Griess reaction was used to determine the NO radical scavenging activity. The NO radicals were generated from 10 mM sodium nitroprusside (SNP) in phosphate-buffered saline (PBS), pH 7.3. A range of sample concentrations (10 µL, 0.625–5 mg/mL) were reacted with 10 mM SNP in PBS at pH 7.3 (90 µL) at room temperature for 90 min in a 96-well plate under visible polychromatic light. Afterward, 1% sulfanilamide in 5% H3PO4 (50 µL) was added to the preincubated extract, followed by subsequent incubation in a dark condition with ambient temperature for 5 min. Following that, 50 µL of 0.1% w/v N-(1-naphtyl)-ethylenediamine (NED) in distilled water was added to each well before incubating at room temperature for 30 min in a dark condition. The diazotization of sulfanilamide with a nitrite ion occurred, followed by a coupling reaction with NED solution to generate a magenta-colored chromophore. The absorbance was measured using a microplate reader at 540 nm. Quercetin was used as a positive control. […] A solvent was used as a control. The percentage inhibition was calculated using Equation (5). (5) % Inhibition=Absorbance control−Absorbance sample/Absorbance control×100
# COX-2 = details: cited from earlier work
# COX-2 and COX-1 = test system: COX-2 and COX-1; set-up: method as in PMID 26626242; details: cited from earlier work
# [9] = read-out: COX-2 IC50 (µg/mL) (converted)
# [10] = Staphylococcus aureus, read-out: MIC
compound,measurement,setting,value
(–)-pinostrobin,activity towards soybean 15-lipoxygenase,soybean 15-lipoxygenase,inactive
same,inhibition of NO production,[1],90.84%
same,cytotoxic effect,[2],without a cytotoxic effect
"CCC(=O)OCC(=O)[C@@]1(OC(=O)CC)[C@@H](C)C[C@H]2[C@@H]3CCC4=CC(=O)C=C[C@]4(C)[C@@]3(F)[C@@H](O)C[C@@]21C [BD, betamethasone dipropionate]",IC50,Human recombinant 5-LOX; 5-LOX IC50 (µM),2.08 µM
same,IC50,Human recombinant 5-LOX; 5-LOX IC50 (µg/mL),2.08 µM
same,IC50,Human recombinant COX-2; read-out: COX-2 IC50,240 µM
same,IC50,Human recombinant COX-2; [9],240 µM
"CN(C)[C@@H]1C(O)=C(C(N)=O)C(=O)[C@@]2(O)C(O)=C3C(=O)c4c(O)cccc4[C@@](C)(O)[C@H]3C[C@@H]12 [Tetracycline, tetracycline hydrochloride]",MIC,Staphylococcus aureus; [10],3.12 µg/mL
"COc1cc(O)c2c(c1)O[C@H](c1ccccc1)CC2=O [Pinostrobin, pinostrobin]",IC50,Human recombinant 5-LOX; read-out: 5-LOX IC50,0.499 µM
same,IC50,Human recombinant 5-LOX; read-out: 5-LOX IC50 (µg/mL) (converted),0.499 µM
same,fold superior 5-LOX inhibitory activity than BD,Human recombinant 5-LOX; relative to BD,4 fold
same,fold superior 5-LOX inhibitory activity to NDGA,Human recombinant 5-LOX; relative to NDGA,10 fold
same,MIC,Staphylococcus aureus; [10],> 200 µg/mL
same,MIC,Staphylococcus aureus,>200 µg/mL
same,IC50 keratinocyte (HaCaT) cells,[3],30.76 µg/mL
same,full maximal inhibitory concentration (IC100) keratinocyte (HaCaT) cells,[3],> 250 µg/mL
same,Ki,[4],2.28 µM
same,type of inhibition against 5-LOX,[4],mixed-type inhibition; also recorded: mixed-type inhibitor
same,DPPH Radical; IC50,[5],>1000 µg/mL
same,FRAP (mM FeSO4/g Extract),[6],1.04 ± 0.01 mM FeSO4/g Extract
same,IC50,Human recombinant COX-2; read-out: COX-2 IC50,286 µM
same,IC50,Human recombinant COX-2; [9],286 µM
same,dermal toxicity,[7],no dermal toxicity was observed
same,NO Radical; IC50,[8],>1000 µg/mL
COc1ccc2c(c1)c(CC(=O)O)c(C)n2C(=O)c1ccc(Cl)cc1 [indomethacin],COX-2 IC50,COX-2,0.26 ± 0.03 µg/mL
"COc1cc(O)c2c(c1)OC(c1ccccc1)CC2=O (racemic) [racemic pinostrobin, pinostrobin]",COX activity compared with the positive control,COX-2 and COX-1,comparable to etodolac
same,selectivity COX-2 versus COX-1,COX-2 and COX-1,more selective for COX-2 than COX-1
"O=c1c(O)c(-c2ccc(O)c(O)c2)oc2cc(O)cc(O)c12 [Quercetin, Quercetin hydrate]",DPPH Radical; IC50,[5],19.08 ± 1.34 µg/mL
same,IC50,[5],63.1 µM
same,IC50,[8],310 µM
same,NO Radical; IC50,[8],93.58 ± 7.93 µg/mL
"CC(Cc1ccc(O)c(O)c1)C(C)Cc1ccc(O)c(O)c1 (stereo not drawn) [NDGA, nordihydroguaiaretic acid]",type of inhibition against 5-LOX,[4],mixed-type inhibition; also recorded: mixed-type inhibitor

# — paper PMC10812521, “Boesenbergia rotunda and Its Pinostrobin for Atopic Dermatitis: Dual 5-Lipoxygenase and Cyclooxygenase-2 Inhibitor and Its Mechanistic Study through Steady-State Kinetics and Molecular Modeling” (Antioxidants, 2024)
